Results as given in the NIST ThermoML archive (doi:10.1021/je049572f).

Test: xn = mol fraction of the nth substance listed
Details: 101.33 kPa, Liquid

O=S1(=O)CCCC1 [sulfolane] + CCc1ccccc1
Details | mass density [kg/m3] | viscosity [mPa·s]
303.15 K, x2 = 0 | 1260.8 | 10.07
303.15 K, x2 = 0.1118 | 1209.27 | 6.224
303.15 K, x2 = 0.2205 | 1160.4 | 4.155
303.15 K, x2 = 0.3267 | 1114.66 | 2.942
303.15 K, x2 = 0.4301 | 1071.65 | 2.185
303.15 K, x2 = 0.5309 | 1031.19 | –
303.15 K, x2 = 0.6293 | 993.33 | 1.324
303.15 K, x2 = 0.7254 | 957.17 | 1.057
303.15 K, x2 = 0.8194 | 923.09 | 0.861
303.15 K, x2 = 0.9106 | 890.45 | 0.716
313.15 K, x2 = 0 | 1251.9 | 7.808
313.15 K, x2 = 0.1118 | 1200.44 | 4.943
313.15 K, x2 = 0.2205 | 1151.53 | 3.385
313.15 K, x2 = 0.3267 | 1105.77 | 2.452
313.15 K, x2 = 0.4301 | 1062.77 | 1.835
313.15 K, x2 = 0.5309 | 1022.32 | –
313.15 K, x2 = 0.6293 | 984.45 | 1.135
313.15 K, x2 = 0.7254 | 948.31 | 0.924
313.15 K, x2 = 0.8194 | 914.23 | 0.757
313.15 K, x2 = 0.9106 | 881.6 | 0.632
323.15 K, x2 = 0 | 1243.36 | 6.194
323.15 K, x2 = 0.1118 | 1191.64 | 4.007
323.15 K, x2 = 0.2205 | 1142.7 | 2.801
323.15 K, x2 = 0.3267 | 1096.92 | 2.048
323.15 K, x2 = 0.4301 | 1053.9 | 1.561
323.15 K, x2 = 0.5309 | 1013.47 | 1.136
323.15 K, x2 = 0.6293 | 975.58 | 0.993
323.15 K, x2 = 0.7254 | 939.43 | 0.813
323.15 K, x2 = 0.8194 | 905.36 | 0.66
323.15 K, x2 = 0.9106 | 872.72 | 0.564
333.15 K, x2 = 0 | 1234.62 | 5.009
333.15 K, x2 = 0.1118 | 1182.85 | 3.33
333.15 K, x2 = 0.2205 | 1133.86 | 2.35
333.15 K, x2 = 0.3267 | 1088.06 | 1.763
333.15 K, x2 = 0.4301 | 1045.02 | 1.347
333.15 K, x2 = 0.5309 | 1004.57 | –
333.15 K, x2 = 0.6293 | 966.66 | 0.876
333.15 K, x2 = 0.7254 | 930.5 | 0.724
333.15 K, x2 = 0.8194 | 896.41 | 0.597
333.15 K, x2 = 0.9106 | 863.76 | 0.505
343.15 K, x2 = 0 | 1225.92 | 4.126
343.15 K, x2 = 0.1118 | 1173.93 | 2.796
343.15 K, x2 = 0.2205 | 1124.89 | 2.005
343.15 K, x2 = 0.3267 | 1079.06 | 1.541
343.15 K, x2 = 0.4301 | 1036.02 | 1.177
343.15 K, x2 = 0.5309 | 995.54 | 0.882
343.15 K, x2 = 0.6293 | 957.62 | 0.772
343.15 K, x2 = 0.7254 | 921.43 | 0.646
343.15 K, x2 = 0.8194 | 887.32 | 0.536
343.15 K, x2 = 0.9106 | 854.67 | 0.459
353.15 K, x2 = 0 | 1216.8 | 3.44
353.15 K, x2 = 0.1118 | 1165.14 | 2.371
353.15 K, x2 = 0.2205 | 1116.08 | 1.736
353.15 K, x2 = 0.3267 | 1070.18 | 1.319
353.15 K, x2 = 0.4301 | 1027.1 | 1.039
353.15 K, x2 = 0.5309 | 986.58 | 0.785
353.15 K, x2 = 0.6293 | 948.63 | 0.692
353.15 K, x2 = 0.7254 | 912.4 | 0.583
353.15 K, x2 = 0.8194 | 878.28 | 0.484
353.15 K, x2 = 0.9106 | 845.58 | 0.417
